# Experimental data: publication PMC6315548, “Cardiac Targeting Peptide, a Novel Cardiac Vector: Studies in Bio-Distribution, Imaging Application, and Mechanism of Transduction” (Biomolecules, 2018)
# Columns and labels:
# [1] = test system: beating neonatal CMCs; assay: Uptake of dual-labeled CTP by beating neonatal cardiomyocytes (confocal microscopy); assay type: cell-based, mouse; conditions: Digoxin 100 nM; 20 mM K+; dual-labeled CTP 25 μM; n = 3; p-value < 0.001
# Description: To further study the CTP’s mechanism of transduction, CMCs were isolated from 1–3-day old mouse pups using published protocols. Beating CMCs were incubated with the dual-labeled CTP (25 μM) under normokalemic (5 mM) and hyperkalemic (20 mM) conditions. […] The degree of transduction of these cells was quantified using confocal microscopy. […] Rhodamine with an ester link was used as a negative control.
# [2] = test system: wild-type CD1 mice; assay: Cardiac targeting peptide imaging studies (microSPECT/CT and dynamic planar imaging); assay type: in vivo, mouse; conditions: 1-5 mCi injected; dual modality microSPECT/CT
# Description: Cardiac targeting peptide was synthesized as detailed above, with HYNIC conjugated to the N-terminus and labeled with ^99mTc in a manner that was analogous to that described previously. The desired ^99mTc-HYNIC-CTP was purified from the crude reaction mixture using solid-phase extraction methods. The radiochemical purity of the final product was determined using reverse-phase HPLC methods.
# Wild-type, 6–8 week old, CD1 mice (~25 g) were injected with 1–5 mCi of ^99mTc Sestamibi or ^99mTc-HYNIC-CTP, and was imaging performed immediately post-injection and at various time points using a Siemens Inveon dual-modality single photon emission computerized tomography/computerized tomography (SPECT/CT) with 5-MWB-1.0 collimators (Siemens Corporation, Washington, DC, USA). The images were resliced for a coronal view and they were Z-stack summed. Analysis of the distribution of the radioisotope was performed using ImageJ software. Measurements were taken by selecting a region of interest at the 0 h time point, applying the same region at different time points for dynamic time course studies. All counts were corrected for the radioactive decay of ^99mTc. For a comparison of dynamic planar images, the highest count in each organ (heart, kidney, and bladder) was set at 100%, and the counts at other time-points plotted as a percentage of that count.
# [3] = test system: human iPSC-derived beating cardiomyocytes (CMCs); assay: Transduction of human iPSC-derived cardiomyocytes (confocal imaging); assay type: cell-based; conditions: 10 μM, 30 min, 37 °C; washed 3x with PBS; confocal microscopy; Supplemental Figure 5
# Description: All protocols involving human tissue samples were approved by the University of Pittsburgh Institutional Review Board (No. PRO09090021). […] After the incubation period, cells were washed, and live confocal imaging was performed immediately.
# [4] = target: T1, transferrin receptor (Rattus norvegicus, UniProt Q99376); assay: LRC-TriCEPs ligand-receptor capture on H9C2 cells, mass spectrometry (transferrin positive control); assay type: binding; conditions: TriCEPS-transferrin conjugate on H9C2 cells; triplicate
# T1 construct: endogenous in cells; host or cells: H9C2 rat cardiomyoblast cells
# T1 sequence (Q99376 whole entry): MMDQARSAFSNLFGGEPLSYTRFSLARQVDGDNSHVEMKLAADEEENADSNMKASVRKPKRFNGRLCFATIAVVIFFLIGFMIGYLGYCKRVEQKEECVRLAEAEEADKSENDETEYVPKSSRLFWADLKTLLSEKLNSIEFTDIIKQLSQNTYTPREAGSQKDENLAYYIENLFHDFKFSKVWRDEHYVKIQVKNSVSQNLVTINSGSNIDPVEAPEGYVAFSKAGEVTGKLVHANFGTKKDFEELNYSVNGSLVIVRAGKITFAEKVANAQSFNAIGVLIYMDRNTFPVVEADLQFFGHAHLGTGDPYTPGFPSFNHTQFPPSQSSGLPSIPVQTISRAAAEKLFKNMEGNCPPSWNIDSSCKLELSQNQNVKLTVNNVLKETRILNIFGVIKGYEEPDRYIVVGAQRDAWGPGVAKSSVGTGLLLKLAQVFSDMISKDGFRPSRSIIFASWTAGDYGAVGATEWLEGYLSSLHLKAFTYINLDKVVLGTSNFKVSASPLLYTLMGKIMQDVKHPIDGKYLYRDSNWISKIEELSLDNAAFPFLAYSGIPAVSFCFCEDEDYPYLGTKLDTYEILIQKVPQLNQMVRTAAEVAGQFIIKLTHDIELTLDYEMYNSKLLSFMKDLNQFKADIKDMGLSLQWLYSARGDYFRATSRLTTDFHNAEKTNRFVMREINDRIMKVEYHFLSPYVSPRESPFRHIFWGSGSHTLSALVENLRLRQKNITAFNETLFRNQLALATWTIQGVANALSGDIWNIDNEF
# From the text: To identify a possible binding partner for CTP, we utilized LRC-TriCEPs technology a service provided by Dualsystems Biotech (Zurich, Switzerland). This methodology relies on TriCEPs™, a trifunctional chemoproteomics reagent, containing (1) a N-hydroxysuccinimide (NHS) ester for attachment to the ligand, (2) a protected hydrazine function for capturing the interacting receptor, and (3) a function for the purification of the ligand-receptor complex. Rat cardiomyoblast cell line H9C2 cells were grown in Dulbecco’s Modified Eagle’s Medium: Nutrient Mixture F-12 (DMEM/F12) (Gibco, Gaithersburg, MD, USA; cat #11039) medium supplemented with 10% fetal bovine serum and maintained at ≤70% confluence. A pretest was performed to identify the binding conditions of the TriCEPS-CTP conjugate on H9C2 cells at varying temperatures, times of incubation, and pH, with successful labeling being analyzed by fluorescence-activated cell sorting (FACs). The LRC-TriCEPS experiment was performed with TriCEP-CTP, TriCEPS-transferrin, and TriCEPS-glycine conjugates, each in triplicate. After the incubation period, cells were lazed and purified using solid-state chromatography, and identified using mass spectrometry. […]
compound,measurement,setting,value
C[C@H]1O[C@@H](O[C@H]2[C@@H](O)C[C@H](O[C@H]3[C@@H](O)C[C@H](O[C@H]4CC[C@@]5(C)[C@H](CC[C@@H]6[C@@H]5C[C@@H](O)[C@]5(C)[C@@H](C7=CC(=O)OC7)CC[C@]65O)C4)O[C@@H]3C)O[C@@H]2C)C[C@H](O)[C@@H]1O [Digoxin],effect of pre-incubation on the hyperkalemia-induced increase in CTP uptake,[1],significantly abrogated
[C-]#[N+]CC(C)(C)OC.[C-]#[N+]CC(C)(C)OC.[C-]#[N+]CC(C)(C)OC.[C-]#[N+]CC(C)(C)OC.[C-]#[N+]CC(C)(C)OC.[C-]#[N+]CC(C)(C)OC.[Tc] [^99mTc Sestamibi],uptake by the heart (SPECT/CT),[2],cardiac uptake
same,uptake in the liver or gut (for Sestamibi also kidneys),[2],significant uptake
H-STLMKFCYVEQN-OH [RAN],uptake by human iPSC-derived CMCs,[3],some background binding to the gel matrix
transferrin: positive control ligand in the LRC-TriCEPS experiment,fold increase of transferrin receptor in the positive control over CTP,[4],~5 fold
